Results as given in article PMC9841531, “Indole Derivatives as New Structural Class of Potent and Antiproliferative Inhibitors of Monocarboxylate Transporter 1 (MCT1; SLC16A1)” (Journal of Medicinal Chemistry, 2022).

How the values were obtained:
MCT1 = molecular target: T1, MCT1 (Homo sapiens, UniProt P53985); test: functional 3-BP cell viability assay (MCT1 transport inhibition); format: cell-based; settings: MCT1-expressing A-549 cells, 50 μM 3-BP, 72 h; read-out: MCT1 transport inhibition IC50 ± SEM
T1 construct: MCT1-expressing A-549 cells[14],[15] were exposed to the MCT1 substrate 3-BP, which becomes influxed by MCT1; endogenous in cells; host or cells: A-549 lung cancer cells (from NCCS, Pune)
T1 sequence (P53985 1-500): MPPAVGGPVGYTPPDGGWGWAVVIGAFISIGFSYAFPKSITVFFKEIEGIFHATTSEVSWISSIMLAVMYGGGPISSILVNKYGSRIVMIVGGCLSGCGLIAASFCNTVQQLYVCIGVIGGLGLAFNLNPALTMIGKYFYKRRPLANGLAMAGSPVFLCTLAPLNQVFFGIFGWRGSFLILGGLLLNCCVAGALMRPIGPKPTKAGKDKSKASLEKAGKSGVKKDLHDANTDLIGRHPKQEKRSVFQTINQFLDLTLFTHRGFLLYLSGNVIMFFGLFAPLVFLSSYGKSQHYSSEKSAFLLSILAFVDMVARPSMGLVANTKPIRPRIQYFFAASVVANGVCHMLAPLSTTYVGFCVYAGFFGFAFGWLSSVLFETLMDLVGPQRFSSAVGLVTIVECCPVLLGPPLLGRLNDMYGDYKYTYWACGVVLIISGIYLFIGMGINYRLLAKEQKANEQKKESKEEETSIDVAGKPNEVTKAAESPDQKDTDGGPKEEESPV
T1 sequence (P35613 140-385 partner limits assumed): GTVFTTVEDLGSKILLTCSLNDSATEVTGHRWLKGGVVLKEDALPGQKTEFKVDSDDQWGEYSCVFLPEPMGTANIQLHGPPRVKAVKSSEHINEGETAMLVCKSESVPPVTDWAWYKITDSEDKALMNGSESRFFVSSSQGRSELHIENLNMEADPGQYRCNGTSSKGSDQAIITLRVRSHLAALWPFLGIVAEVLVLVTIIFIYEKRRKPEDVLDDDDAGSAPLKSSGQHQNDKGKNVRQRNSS
Protocol: The inhibitory activity of indole derivatives against MCT1 was determined by applying a functional 3-bromopyruvate (3-BP) cell viability assay, as described in the literature[20],[39] with minor modifications. In short, MCT1-expressing A-549 cells[14],[15] were exposed to the MCT1 substrate 3-BP, which becomes influxed by MCT1. 3-BP is toxic, leading to decreased cell viability. Functional inhibition of MCT1 results in reduced intracellular 3-BP levels and, thus, enhanced cell viability compared to no inhibition. […] Table 1 provides the half-maximal inhibition concentration (IC50) values of compounds 17–32.
A functional 3-BP cytotoxicity assay was conducted as described in the literature[20],[39] with minor modifications. Dilution series of compounds 17–32 between 1 nM and 1 μM were prepared in DPBS (Cell Clone, Genetix Biotech Asia, New Delhi India), and 10 μL of each concentration was pipetted into a colorless flat-bottom 96-well microplate (SPL Life Sciences, Gyeonggi-do, Republic of Korea). One hundred and eighty microliters of a cell suspension (5000 cells/well) of A-549 cells was added, and subsequently, 10 μL of 3-BP was added at a concentration of 1 mM (final concentration per well: 50 μM). The plate was kept for 72 h at 37 °C under a 5% CO2-humidified atmosphere. Cell viability was determined as described before[43] by adding 20 μL of a 5 mg/mL solution of MTT to each well and further incubation for 1 h. Eventually, the supernatant was removed and 100 μL of DMSO was added to each well. The absorbance was spectrophotometrically determined at 570 nm using a SpectraMax iD3 multi-mode microplate reader (Molecular Devices, San Jose, CA) with a background correction (690 nm). The determined absorbance values were correlated to the logarithmic concentrations of compounds 17–32, and IC50 values were calculated applying nonlinear regression using GraphPad Prism (version 8.4.0., San Diego, CA).

MCF-7 cancer cells = test: MTT-based cell viability assay, MCF-7; settings: Homo sapiens, MCF7, 72 h, read-out: MCF-7 cancer cell toxicity GI50 ± SEM
Source text: MCT1-expressing cells have an extraordinary energy demand and rely on pyruvate metabolism, through either lactate conversion or pyruvate consumption. Inhibition of MCT1 blocks lactate and pyruvate influx into cancer cells, which prevents their processing in the TCA cycle. Over time, the viability of cells exposed to an MCT1 inhibitor is impaired due to pyruvate deprivation, which is compensated by upregulating glucose metabolism—leading to an overconsumption of glucose. To confirm the antiproliferative nature of the indole derivatives, we investigated the compounds toward the MCT1-expressing cell lines A-549[14],[15] and MCF-7.[16] Cancer cell viability was assessed via a 3-(4,5-dimethylthiazol-2-yl)-2,5-diphenyltetrazolium bromide (MTT) assay, as reported earlier.[43]
To determine the growth inhibitory potential of compounds 17–32, […] of each compound either at concentrations between 1 and 100 μM (A-549 or MCF-7) or at 10 and 50 μM (NIH/3T3) was pipetted into colorless flat-bottom 96-well microplates. Thereafter, 180 μL of a cell suspension (5000 cells/well) of either A-549, MCF-7, or NIH/3T3 cells was added and subsequently kept for 72 h at 37 °C under a 5% CO2-humidified atmosphere. The cell viability as well as the GI50 values were determined as described above.[43]

A-549 cells = test: MTT-based cell viability assay with glucose supplementation; settings: 25 and 50% of original glucose (4.5 g/L) every 12 h over 72 h
Protocol: The glucose deprivation analyses were conducted by adding 4.5 μL of glucose (final concentrations 25% and 50% of the original 4.5 g/L) to each well at an interval of 12 h over a period of 72 h to the 180 μL cell suspension of A-549 cells in a colorless flat-bottom 96-well microplate (SPL Life Sciences, Gyeonggi-do, Republic of Korea). Cell viability was determined as described above.

[1] = system: MCT1-expressing A-549 cells; test: MTT-based efficacy assay, 33 in combination with test compound, A-549; format: cell-based; settings: for factor of sensitization of A-549 cells against 33: shift of concentration-effect curve of 33; for Increase Susceptibility toward 33 (Factor): supplement csv
Protocol: MCT1 inhibition anticipates challenging cancer cell energy supply and, thus, increases the efficacy of anticancer agents.
For this purpose, 10 μL of compounds 24 or 30 (50 nM, 100 nM, or 500 nM) was transferred onto a colorless flat-bottom 96-well microplate and complemented with 180 μL of a cell suspension containing either approximately 5,000 A-549 cells. A dilution series of compound 33 at concentrations between 50 nM and 50 μM was generated, and 10 μL of each concentration was transferred onto the plate. The observed effects of compounds 24 and 30 were compared to the effect of compound 33 alone on A-549. The plates were incubated for 72 h at 37 °C and a 5% CO2-humidified atmosphere, before subsequent processing with the regular MTT assay as described above.[43]

ABCB1 = ABCB1 (Homo sapiens, UniProt P08183); test: daunorubicin assay, ABCB1-expressing A2780/ADR cells; format: cell-based; settings: A2780/ADR cells; read-out: ABCB1 daunorubicin IC50 ± SEM
Sequence of ABCB1 (P08183 whole entry): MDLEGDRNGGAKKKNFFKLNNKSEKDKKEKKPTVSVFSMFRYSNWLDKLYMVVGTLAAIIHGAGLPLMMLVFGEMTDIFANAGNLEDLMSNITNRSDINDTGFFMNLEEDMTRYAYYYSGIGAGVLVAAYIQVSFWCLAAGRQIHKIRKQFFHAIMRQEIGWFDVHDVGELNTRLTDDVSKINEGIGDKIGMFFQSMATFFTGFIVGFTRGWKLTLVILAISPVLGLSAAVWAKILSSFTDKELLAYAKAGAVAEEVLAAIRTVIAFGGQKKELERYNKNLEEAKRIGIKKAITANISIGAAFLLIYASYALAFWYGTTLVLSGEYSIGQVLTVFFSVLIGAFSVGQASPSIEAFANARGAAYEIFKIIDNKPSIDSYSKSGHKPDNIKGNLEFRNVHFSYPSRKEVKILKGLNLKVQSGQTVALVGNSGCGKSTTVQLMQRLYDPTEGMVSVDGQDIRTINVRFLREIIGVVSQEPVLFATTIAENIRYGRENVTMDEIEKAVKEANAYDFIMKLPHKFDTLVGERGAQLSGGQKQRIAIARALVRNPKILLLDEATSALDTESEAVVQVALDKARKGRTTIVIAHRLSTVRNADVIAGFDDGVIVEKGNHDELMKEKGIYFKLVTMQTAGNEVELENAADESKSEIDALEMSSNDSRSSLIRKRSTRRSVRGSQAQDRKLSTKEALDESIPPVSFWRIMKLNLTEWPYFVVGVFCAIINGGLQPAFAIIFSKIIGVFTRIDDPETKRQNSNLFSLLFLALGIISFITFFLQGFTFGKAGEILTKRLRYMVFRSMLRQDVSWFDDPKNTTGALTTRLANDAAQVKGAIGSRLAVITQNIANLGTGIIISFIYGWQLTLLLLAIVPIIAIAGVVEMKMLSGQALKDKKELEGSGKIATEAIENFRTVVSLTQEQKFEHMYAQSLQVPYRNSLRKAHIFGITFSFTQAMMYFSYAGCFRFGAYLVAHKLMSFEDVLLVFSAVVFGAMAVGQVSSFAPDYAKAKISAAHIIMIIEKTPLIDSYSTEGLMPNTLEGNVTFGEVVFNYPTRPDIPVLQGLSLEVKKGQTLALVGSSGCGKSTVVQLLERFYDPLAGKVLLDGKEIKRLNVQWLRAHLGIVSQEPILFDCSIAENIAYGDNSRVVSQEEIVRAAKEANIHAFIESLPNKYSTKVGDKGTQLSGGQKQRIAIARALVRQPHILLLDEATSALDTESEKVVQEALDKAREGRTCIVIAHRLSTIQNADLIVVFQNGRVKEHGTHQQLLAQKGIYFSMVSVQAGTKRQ

Row | Structure (SMILES) | IC50 (MCT1) | GI50 (MCF-7 cancer cells) | effect of glucose supplementation on cell toxicity (A-549 cells) | factor of sensitization of A-549 cells against 33 [1] | Increase Susceptibility toward 33 (Factor) [1] | IC50 (ABCB1)
1 | COC(=O)/C(C#N)=C/c1cn(CC(=O)Nc2ccc(OC)cc2)c2ccccc12 [Compound 24, Methyl-2-cyano-3-(1-(2-((4-methoxyphenyl)amino)-2-oxoethyl)-1H-indol-3-yl) Acrylate] | 81 ± 4 nM | 15.1 ± 0.4 µM | supplementation of glucose prevents cell toxicity | 2.5 | 2.5 | 1490 ± 50 nM
2 | COC(=O)/C(C#N)=C/c1cn(CC(=O)Nc2ccc(C)cn2)c2ccccc12 [Compound 30, Methyl-2-cyano-3-(1-(2-((5-methylpyridin-2-yl)amino)-2-oxoethyl)-1H-indol-3-yl) Acrylate] | 82.3 ± 4.4 nM | 9.12 ± 0.22 µM | supplementation of glucose prevents cell toxicity | 2.6 | 2.6 | 2770 ± 20 nM
